“Also recorded” adds a separate entry of the source.

One experiment has as its system spontaneously beating neonatal rat cardiomyocytes (NRCMs). As to the kind of experiment: Chronotropic effect on spontaneously beating neonatal rat cardiomyocytes (in vitro cardiac arrhythmia model). The class given is cell-based, neonatal Wistar rats. The settings on record: 30 nM final concentration, 5 min incubation. An excerpt:
The activity of the n-3 PUFA analogues according to the invention can, for example, be determined in appropriate in vitro and/or in vivo assays. For instance, the biological activity of the n-3 PUFA analogues according to the present invention may be determined using the established cell model of Kang and Leaf (Proc Natl Acad Sci USA, 1994. 91(21): p. 9886-90.) known to those skilled in the art.
In order to measure the biological activities of the novel compounds an established cell model was used (Kang, J. X. and A. Leaf, Effects of long-chain polyunsaturated fatty acids on the contraction of neonatal rat cardiac myocytes. Proc Natl Acad Sci USA, 1994. 91(21): p. 9886-90.). The spontaneously beating neonatal rat cardiomyocytes (NRCMs) are a model system to investigate anti-arrhythmic effects of test-compounds.
Isolation and cultivation of NRCMs were performed as described previously (Wallukat, G; Wollenberger, A. Biomed Biochim Acta. 1987;78:634-639; Wallukat G, Homuth V, Fischer T, Lindschau C, Horstkamp B, Jupner A, Baur E, Nissen E, Vetter K, Neichel D, Dudenhausen J W, Haller H, Luft F C. J Clin Invest. 1999; 103: 945-952). Briefly, neonatal Wistar rats (1-2 days old) were killed in conformity to the recommendations of the Community of Health Service of the City of Berlin and the cardiomyocytes were dissociated from the minced ventricles with a 0.2% solution of crude trypsin. The isolated cells were then cultured as monolayers on the bottom (12.5 cm^2) of Falcon flasks in 2.5 ml of Halle SM 20-I medium equilibrated with humidified air. The medium contained 10% heat-inactivated FCS and 2 μmol/l fluoro-deoxyuridine (Serva, Heidelberg, Germany), the latter to prevent proliferation of non-muscle cells. The NRCMs (2.4×10^6 cells/flask) were cultured at 37° C. in an incubator. After 5 to 7 days, the NRCMs formed spontaneously beating cell clusters. […] On the day of the experiment, the culture medium was replaced by 2.0 ml fresh serum-containing medium. Two hours later, the beating rates were monitored at 37° C. using an inverted microscope equipped with a heating stage. To determine the basal rate, 6 to 8 individual clusters were selected and the number of contractions was counted for 15 sec. After that, the compound to be tested was added to the culture and the beating rate of the same clusters was monitored 5 min later again. Based on the difference between the basal and compound-induced beating rate of the individual clusters, the chronotropic effects (Δ beats/min) were calculated and are given as mean±SE values. N refers to the number of clusters monitored which originated, in general, from at least three independent NRCM cultures.
All compounds tested were added to the NRCMs at a final concentration of 30 nM and the measurement was performed after 5 min of incubation; except EPA that was used at a final concentration of 3.3 μM and the effect was monitored after 30 min of incubation.
For the compound `CCC1OC1C/C=C\C/C=C\C/C=C\C/C=C\CCCC(=O)O` (stereo not shown) [17,18-EEQ, 17,18-epoxyeicosatetraenoic acid, reference compound], the “chronotropic effect on spontaneous beating rate (in words)” value (from here on “chronotropic effect … (in words)”) is recorded as “negative chronotropic effect”.

With `CNC(=O)C(=O)NCCCC/C=C\CCCCCCCCCC1=NOS(=O)N1` (stereo not shown) [C38, N^1-methyl-N^2-(15-(2-oxido-3H-1,2,3,5-oxathiadiazol-4-yl)pentadec-5(Z)-en-1-yl)oxalamide], the “chronotropic effect … (in words)” value was “negative chronotropic effect”.

Consider `CNC(=O)C(=O)NCCCC/C=C\CCCCCCCCCP(=O)([O-])[O-].[Na+].[Na+]` [C41, disodium 15-(2-(methylamino)-2-oxoacetamido)pentadec-10(Z)-enylphosphonate], for which the “chronotropic effect … (in words)” value is “negative chronotropic effect”.

As to `CNC(=O)C(=O)NCCCC/C=C\CCCCCCCCCS(=O)(=O)[O-].[Na+]` [C42, Sodium 15-(2-(methylamino)-2-oxoacetamido)pentadec-10(Z)-en-1-sulfonate], the “chronotropic effect … (in words)” value was “negative chronotropic effect”.

For the compound `CNC(=O)C(=O)NCCCC/C=C\CCCCCCCCCSc1ccccc1O` [C44, (Z)—N^1-(15-((2-hydroxyphenyl)thio)pentadec-5-en-1-yl)-N^2-methyloxalamide], the “chronotropic effect … (in words)” value was “lowest activity; also recorded: negative chronotropic effect”.

Turning to `CNC(=O)C(=O)NCCCc1ccccc1CCCCCCP(=O)([O-])[O-].[Na+].[Na+]` [C48], the “chronotropic effect … (in words)” value is listed as “negative chronotropic effects”.

For `CNC(=O)C(=O)NCCCCc1ccccc1CCCCCCCCCP(=O)([O-])[O-].[Na+].[Na+]` [C49], the “chronotropic effect … (in words)” value is on record as “negative chronotropic effects”.

For `CNC(=O)C(=O)NCCCC/C=C\CCCCCCCCCC(=O)NS(=O)(=O)c1ccccc1` [C50, N^1-(16-phenylsulfonamido-16-oxohexadec-5(Z)-en-1-yl)-N^2-methyloxalamide], the “chronotropic effect … (in words)” value is “negative chronotropic effect”.

Consider “N^1-(15-((2-acetamidobenzo[d]thiazol-7-yl)oxy)pentadec-5(Z)-en-1-yl)-N^2-methyloxalamide [C43]”, for which the “chronotropic effect … (in words)” value is recorded as “negative chronotropic effect”.

Still in this experiment, the particulars now being: 30 nM final concentration, 5 min incubation, n=12 clusters.
With `CNC(=O)C(=O)NCCCC/C=C\CCCCCCCCCSc1ccccc1O` [C44, (Z)—N^1-(15-((2-hydroxyphenyl)thio)pentadec-5-en-1-yl)-N^2-methyloxalamide], the “chronotropic effect (Δ beats/min), mean±SE” value is −7.5±4.5 beats/min.
